The values below come from PubChem BioAssay AID330 (DTP/NCI, 2004).

The subject of this assay is P388 leukemia ip, CD2F1 mice, survival T/C. In words: NCI In Vivo Anticancer Drug Screen. Data for tumor model P388 Leukemia (intraperitoneal) in CD2F1 (CDF1) mice. Particulars: endpoint: median survival time, higher = longer survival. An outline of the steps: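 Mice carrying the transplanted tumor received test compound or vehicle. Survival was recorded in each group, and the value is the treated-group measurement divided by that of the vehicle-treated control group.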

Where [1] appears, read: dose: 50.0 mg/kg/injection, schedule: Q01DX005 (ip), vehicle: saline with Tween-80.
[2] abbreviates: dose: 100.0 mg/kg/injection, schedule: Q01DX005 (ip), vehicle: saline with Tween-80.
Where [3] appears, read: dose: 200.0 mg/kg/injection, schedule: Q01DX005 (ip), vehicle: saline with Tween-80.
Where [4] appears, read: dose: 25.0 mg/kg/injection, schedule: Q01DX009 (ip), vehicle: saline with Tween-80.
Where [5] appears, read: dose: 25.0 mg/kg/injection, schedule: Q01DX009 (ip), vehicle: distilled water + Tween-80.
Setting [6] is: dose: 50.0 mg/kg/injection, schedule: Q01DX009 (ip), vehicle: distilled water + Tween-80.
[7] abbreviates: dose: 50.0 mg/kg/injection, schedule: Q01DX009 (ip), vehicle: saline with Tween-80.
[8] abbreviates: dose: 100.0 mg/kg/injection, schedule: Q01DX009 (ip), vehicle: saline with Tween-80.
The mark [9] stands for this setting: dose: 100.0 mg/kg/injection, schedule: Q04DX003 (ip), vehicle: Klucel (hydroxypropylcellulose) (HPC).
The mark [10] stands for this setting: dose: 200.0 mg/kg/injection, schedule: Q04DX003 (ip), vehicle: Klucel (hydroxypropylcellulose) (HPC).
Setting [11] is: dose: 400.0 mg/kg/injection, schedule: Q04DX003 (ip), vehicle: Klucel (hydroxypropylcellulose) (HPC).
[12] abbreviates: dose: 12.5 mg/kg/injection, schedule: Q01DX005 (ip), vehicle: saline.
[13] abbreviates: dose: 25.0 mg/kg/injection, schedule: Q01DX005 (ip), vehicle: saline.
Setting [14] is: dose: 100.0 mg/kg/injection, schedule: Q01DX009 (ip), vehicle: saline.
The mark [15] stands for this setting: dose: 200.0 mg/kg/injection, schedule: Q01DX009 (ip), vehicle: saline.

“And” between values parts separate entries of the source, which are not always exact repeats. Identical values can stand only once. Toxic doses and inconclusive results are not listed.

Take `C[C@]12CC[C@@H]3c4ccc(O)c(N)c4CC[C@H]3[C@@H]1CC[C@@H]2O`: the T/C reads like this: (dose: 12.5 mg/kg/injection, schedule: Q01DX005 (ip), vehicle: saline with Tween-80) 93 % of control; (dose: 25.0 mg/kg/injection, schedule: Q01DX005 (ip), vehicle: saline with Tween-80) 88 % of control; under setting [1], 94 % of control; under setting [2], 90 % of control; under setting [3], 90 % of control.

Turning to `SCc1ccccc1.[Cu+2]`, the T/C is 99 % of control (dose: 6.25 mg/kg/injection, schedule: Q01DX009 (ip), vehicle: saline with Tween-80); 91 % of control (dose: 12.5 mg/kg/injection, schedule: Q01DX009 (ip), vehicle: saline with Tween-80); 97 % of control under setting [4].

For the molecule `CNC(=O)OCc1c(COC(=O)NC)c(-c2ccc(Cl)c(Cl)c2)n2c1Cc1ccccc1C2`, the T/C was 153 % of control and 160 % of control under setting [5]; 155 % of control and 195 % of control under setting [6]; 171 % of control and 189 % of control (dose: 100.0 mg/kg/injection, schedule: Q01DX009 (ip), vehicle: distilled water + Tween-80); 117 % of control and 97 % of control (dose: 200.0 mg/kg/injection, schedule: Q01DX009 (ip), vehicle: distilled water + Tween-80).

For `CCOC(=O)Nc1cc(NC(c2ccccc2)c2ccccc2)c2[nH]cnc2n1`, the T/C was 88 % of control under setting [4]; 88 % of control under setting [7]; 117 % of control under setting [8]; 96 % of control (dose: 200.0 mg/kg/injection, schedule: Q01DX009 (ip), vehicle: saline with Tween-80).

Consider `COc1cc([C@@H]2c3cc4c(c(O)c3C[C@H]3COC(=O)[C@@H]32)OCO4)cc(OC)c1OC`, for which the T/C was 113 % of control (dose: 0.12 mg/kg/injection, schedule: Q01DX009 (ip), vehicle: saline); 111 % of control (dose: 0.12 mg/kg/injection, schedule: Q01DX009 (ip), vehicle: suspension in saline); 119 % of control (dose: 0.25 mg/kg/injection, schedule: Q01DX009 (ip), vehicle: saline); 119 % of control (dose: 0.25 mg/kg/injection, schedule: Q01DX009 (ip), vehicle: suspension in saline); 124 % of control (dose: 0.5 mg/kg/injection, schedule: Q01DX009 (ip), vehicle: saline).

Turning to `N#Cc1c(-c2ccc(Cl)cc2)cn2c1[nH]c(=O)c1ccccc12`, the T/C was 107 % of control (dose: 60.0 mg/kg/injection, schedule: Q01DX005 (ip), vehicle: saline with Tween-80); 102 % of control (dose: 120.0 mg/kg/injection, schedule: Q01DX005 (ip), vehicle: saline with Tween-80); 96 % of control (dose: 240.0 mg/kg/injection, schedule: Q01DX005 (ip), vehicle: saline with Tween-80).

Consider `CCOC(=O)Nc1ccc(OCC)cc1`, for which the T/C is 107 % of control under setting [9], 100 % of control under setting [10] and 92 % of control under setting [11].

In the case of `CCO/C(C)=C\C(=O)O`, the T/C is, setting by setting: under setting [1], 98 % of control; under setting [2], 97 % of control; under setting [3], 97 % of control.

For the molecule `C=CCN(CC=C)C(N)=Nc1ccccc1Cl`, the T/C is, setting by setting: (dose: 6.25 mg/kg/injection, schedule: Q01DX005 (ip), vehicle: saline) 103 % of control; under setting [12], 103 % of control; under setting [13], 103 % of control.

`O=C1/C(=C/c2ccccn2)CCc2ccccc21`: the T/C was 102 % of control (dose: 50.0 mg/kg/injection, schedule: Q01DX009 (ip), vehicle: saline); 101 % of control under setting [14]; 99 % of control under setting [15].

As to `CC(/C=C/C1OC(=O)C=CC1C)=C\C(C)C/C=C/C(C)=C/C(CO)C(=O)C(C)C(O)C(C)C/C(C)=C/C(=O)O` (stereo not drawn), the T/C by setting is: (dose: 25.0 micrograms/kg/injection, schedule: Q01DX005 (ip), vehicle: other) 119 % of control; (dose: 100.0 micrograms/kg/injection, schedule: Q01DX005 (ip), vehicle: other) 153 % of control.

`CCN=C(N)Nc1nc(C)c2cc(Cl)ccc2n1`: the T/C is, setting by setting: under setting [12], 104 % of control; under setting [13], 104 % of control; under setting [1], 109 % of control; (dose: 50.0 mg/kg/injection, schedule: Q01DX005 (ip), vehicle: saline) 111 % of control.

In the case of `CNC(=S)NNC(=O)C(Cc1ccc([N+](=O)[O-])cc1)C(=O)NNC(=S)NC`, the T/C reads like this: (dose: 100.0 mg/kg/injection, schedule: Q04DX002 (ip), vehicle: saline) 98 % of control; (dose: 200.0 mg/kg/injection, schedule: Q04DX002 (ip), vehicle: saline) 98 % of control; (dose: 400.0 mg/kg/injection, schedule: Q04DX002 (ip), vehicle: saline) 90 % of control.

Turning to `CCOC1(C)OC2OC(COC(c3ccccc3)(c3ccccc3)c3ccccc3)C(OC(=O)c3ccccc3)C(OC(=O)c3ccccc3)C2O1` (stereo not drawn), the T/C (dose: 12.5 mg/kg/injection, schedule: Q01DX009 (ip), vehicle: distilled water + Tween-80) was 98 % of control; the T/C under setting [5] was 90 % of control; the T/C under setting [6] was 99 % of control.

Regarding `Cc1cc(=O)c2ccccc2s1`, the T/C was 104 % of control under setting [7] and 113 % of control under setting [8].

Turning to `c1ccc(-c2cc[n+]3c4c2ccc2c(-c5ccccc5)cc[n+](c24)CC3)cc1`, the T/C by setting is: (dose: 6.25 mg/kg/injection, schedule: Q01DX009 (ip), vehicle: saline) 99 % of control; (dose: 12.5 mg/kg/injection, schedule: Q01DX009 (ip), vehicle: saline) 98 % of control and 100 % of control; (dose: 25.0 mg/kg/injection, schedule: Q01DX009 (ip), vehicle: saline) 104 % of control and 117 % of control.

Turning to `CCOC(=O)CCOCOCCC(=O)OCC`, the T/C by setting is: under setting [14], 100 % of control; under setting [15], 115 % of control; (dose: 400.0 mg/kg/injection, schedule: Q01DX009 (ip), vehicle: saline) 110 % of control.

With `c1cc(-c2nc3ccc(-c4nc5ccc(C6=NCCN6)cc5[nH]4)cc3[nH]2)ccc1C1=NCCN1`, the T/C runs as follows: (dose: 6.25 mg/kg/injection, schedule: Q01DX005 (ip), vehicle: Klucel (hydroxypropylcellulose) (HPC)) 100 % of control; (dose: 12.5 mg/kg/injection, schedule: Q01DX005 (ip), vehicle: Klucel (hydroxypropylcellulose) (HPC)) 98 % of control; (dose: 50.0 mg/kg/injection, schedule: Q01DX005 (ip), vehicle: Klucel (hydroxypropylcellulose) (HPC)) 88 % of control.

With `CC(=O)CC1CC2(CCC1=O)OCCO2` (stereo not drawn), the T/C was 100 % of control (dose: 100.0 mg/kg/injection, schedule: Q01DX009 (ip), vehicle: saline sonified); 100 % of control (dose: 200.0 mg/kg/injection, schedule: Q01DX009 (ip), vehicle: saline sonified); 100 % of control (dose: 400.0 mg/kg/injection, schedule: Q01DX009 (ip), vehicle: saline sonified).

As to `c1ccc(OCCC[P+](c2ccccc2)(c2ccccc2)c2ccccc2)cc1`, the T/C runs as follows: (dose: 0.7 mg/kg/injection, schedule: Q01DX010 (ip), vehicle: carboxymethylcellulose (CMC)) 120 % of control; (dose: 1.5 mg/kg/injection, schedule: Q01DX010 (ip), vehicle: carboxymethylcellulose (CMC)) 110 % of control; (dose: 3.0 mg/kg/injection, schedule: Q01DX010 (ip), vehicle: carboxymethylcellulose (CMC)) 120 % of control; (dose: 4.1 mg/kg/injection, schedule: Q01DX009 (ip), vehicle: saline sonified) 113 % of control; (dose: 6.25 mg/kg/injection, schedule: Q01DX009 (ip), vehicle: saline sonified) 118 % of control.

On to `COc1ccc(/C=N/Nc2nnc3c4ccccc4c4ccccc4c3n2)cc1`, for which the T/C is, setting by setting: (dose: 50.0 mg/kg/injection, schedule: Q04DX003 (ip), vehicle: saline) 89 % of control; (dose: 100.0 mg/kg/injection, schedule: Q04DX003 (ip), vehicle: saline) 93 % of control; (dose: 200.0 mg/kg/injection, schedule: Q04DX003 (ip), vehicle: saline) 92 % of control.

Turning to `N#CC1=Cc2ccccc2OC1`, the T/C runs as follows: under setting [9], 108 % of control; under setting [10], 108 % of control; under setting [11], 105 % of control.
